Earlier results in US7592331B2, “Macrocyclic factor VIIa inhibitors useful as anticoagulants” (Bristol-Myers Squibb Company, priority 2005, dated 2009).

Legend:
[1] = system: patients with acute coronary syndromes
[2] = system: patients undergoing total knee replacement
[3] = system: patients undergoing coronary angioplasty

Substance: recombinant nematode anticoagulant protein c2 [rNAPc2]
- magnitude and duration of ischemic events [1]: reduces magnitude and duration of ischemic events
- deep vein thrombosis [2]: prevents deep vein thrombosis
- systemic thrombin generation [3]: reduces systemic thrombin generation
